Test system: subjects with moderate-to-severe plaque psoriasis
Test: Safety, adverse events, Example 2 through Week 56
Type: in vivo, human
Details: 25 mg QD, through Week 56
Text: The LTE safety analysis was based on randomized participants in Example who entered the present long-term extension study and received at least one dose of study intervention (including a partial dose) during the study period.

CC(=O)NCCCC[C@@H]1NC(=O)[C@H](Cc2c[nH]c3c(C)cccc23)NC(=O)[C@H]([C@@H](C)O)NC(=O)[C@H](CC(N)=O)NC(=O)[C@@H](NC(C)=O)C(C)(C)SSC(C)(C)[C@@H](C(=O)N[C@@H](Cc2ccc(OCCN)cc2)C(=O)N[C@@H](Cc2ccc3ccccc3c2)C(=O)NC2(C(=O)N[C@@H](CCC(=O)O)C(=O)N[C@@H](CC(N)=O)C(=O)N[C@@H](Cc3cccnc3)C(=O)N(C)CC(N)=O)CCOCC2)NC1=O [IL-23 receptor antagonist peptide, Ac-[Pen]*-N-T-[W(7-Me)]-[Lys(Ac)]-[Pen]*-Phe[4-(2-aminoethoxy)]-[2-Nal]-[THP]-E-N-[3-Pal]-Sarc-NH2 (*[Pen]-[Pen]* formdisulfidebond)] was tested, and the “Cardiac disorders: number of subjects” value was 0, the “Chills: number of subjects” value was 0 and the “Cholelithiasis: number of subjects” value was 0. The “Chronic obstructive pulmonary disease: number of subjects” value was 0, the “Coronary artery disease: number of subjects” value was 0 and the “Cough: % of subjects” value was “(2.3%)”. The “Cough: number of subjects” value was 1, the “Decreased appetite: % of subjects” value was “(2.3%)” and the “Decreased appetite: number of subjects” value was 1. For the same compound, the “Depression: number of subjects” value was 0, the “Dermal cyst: % of subjects” value was “(2.3%)” and the “Dermal cyst: number of subjects” value was 1. For the same compound, the “Dermatitis acneiform: number of subjects” value was 0, the “Dermatitis contact: number of subjects” value was 0 and the “Diabetes mellitus: % of subjects” value was “(2.3%)”. The “Diabetes mellitus: number of subjects” value was 1, the “Diffuse alopecia: % of subjects” value was “(2.3%)” and the “Diffuse alopecia: number of subjects” value was 1. The “Dysuria: number of subjects” value was 0, the “Ear and labyrinth disorders: % of subjects” value was “(2.3%)” and the “Ear and labyrinth disorders: number of subjects” value was 1. The “Endocrine disorders: number of subjects” value was 0, the “Eye disorders: number of subjects” value was 0 and the “Eyelid skin dryness: number of subjects” value was 0. For the same compound, the “Fatigue: number of subjects” value was 0, the “General disorders and administration site conditions: % of subjects” value was “(2.3%)” and the “General disorders and administration site conditions: number of subjects” value was 1. For the same compound, the “Goiter: number of subjects” value was 0, the “Haemochromatosis: number of subjects” value was 0 and the “Hand dermatitis: number of subjects” value was 0. For the same compound, the “Hematuria: number of subjects” value was 0, the “Hepatobiliary disorders: % of subjects” value was “(2.3%)” and the “Hepatobiliary disorders: number of subjects” value was 1. The “Hypercholesterolemia: number of subjects” value was 0, the “Hyperglycemia: number of subjects” value was 0 and the “Hyperlipidemia: number of subjects” value was 0. For the same compound, the “Hypertension: number of subjects” value was 0, the “Hypertransaminasemia: number of subjects” value was 0 and the “Hypertriglyceridemia: % of subjects” value was “(2.3%)”. The “Hypertriglyceridemia: number of subjects” value was 1, the “Hypoacusis: number of subjects” value was 0 and the “Immune system disorders: number of subjects” value was 0. The “Influenza like illness: number of subjects” value was 0, the “Insomnia: number of subjects” value was 0 and the “Intertrigo: number of subjects” value was 0. For the same compound, the “Ketonuria: number of subjects” value was 0, the “Leukocyturia: number of subjects” value was 0 and the “Leukopenia: number of subjects” value was 0. For the same compound, the “Libido decreased: number of subjects” value was 0, the “Liver disorder: number of subjects” value was 0 and the “Lymphopenia: number of subjects” value was 0. For the same compound, the “Menopause: number of subjects” value was 0, the “Metabolism and nutrition disorders: % of subjects” value was “(4.7%)” and the “Metabolism and nutrition disorders: number of subjects” value was 2. The “Neoplasms benign, malignant and unspecified (incl cysts and polyps): number of subjects” value was 0, the “Nephrolithiasis: number of subjects” value was 0 and the “Neutropenia: number of subjects” value was 0. The “Night sweats: number of subjects” value was 0, the “Non-cardiac chest pain: number of subjects” value was 0 and the “Ocular cyst: number of subjects” value was 0. The “Oedema peripheral: number of subjects” value was 0, the “Oropharyngeal pain: number of subjects” value was 0 and the “Procedural pain: number of subjects” value was 0. For the same compound, the “Productive cough: number of subjects” value was 0, the “Proteinuria: number of subjects” value was 0 and the “Pruritus: number of subjects” value was 0. The “Psoriasis: number of subjects” value was 0, the “Psychiatric disorders: number of subjects” value was 0 and the “Pyrexia: % of subjects” value was “(2.3%)”. For the same compound, the “Pyrexia: number of subjects” value was 1, the “Rash pruritic: number of subjects” value was 0 and the “Renal and urinary disorders: % of subjects” value was “(2.3%)”. For the same compound, the “Renal and urinary disorders: number of subjects” value was 1, the “Renal mass: % of subjects” value was “(2.3%)” and the “Renal mass: number of subjects” value was 1. The “Respiratory, thoracic and mediastinal disorders: % of subjects” value was “(2.3%)”, the “Respiratory, thoracic and mediastinal disorders: number of subjects” value was 1 and the “Retinal vein occlusion: number of subjects” value was 0. The “Rhinorrhoea: number of subjects” value was 0, the “Seasonal allergy: number of subjects” value was 0 and the “Skin and subcutaneous tissue disorders: % of subjects” value was “(7.0%)”. For the same compound, the “Skin and subcutaneous tissue disorders: number of subjects” value was 3, the “Skin laceration: number of subjects” value was 0 and the “Skin papilloma: number of subjects” value was 0. For the same compound, the “Social circumstances: number of subjects” value was 0, the “Steatohepatitis: % of subjects” value was “(2.3%)” and the “Steatohepatitis: number of subjects” value was 1. The “Subjects with 1 or more treatment-emergent serious adverse events” value was 0, the “Subjects with AE leading to discontinuation: Abdominal discomfort” value was 0 and the “Subjects with AE leading to discontinuation: Abdominal pain” value was 0. The “Subjects with AE leading to discontinuation: Asthenia” value was 0, the “Subjects with AE leading to discontinuation: Chills” value was 0 and the “Subjects with AE leading to discontinuation: Ear and labyrinth disorders” value was 0. For the same compound, the “Subjects with AE leading to discontinuation: Gastrointestinal disorders” value was 0, the “Subjects with AE leading to discontinuation: General disorders and administration site conditions” value was 0 and the “Subjects with AE leading to discontinuation: Headache” value was 0. The “Subjects with AE leading to discontinuation: Insomnia” value was 0, the “Subjects with AE leading to discontinuation: Nausea” value was 0 and the “Subjects with AE leading to discontinuation: Nervous system disorders” value was 0. The “Subjects with AE leading to discontinuation: Proctalgia” value was 0, the “Subjects with AE leading to discontinuation: Psoriasis” value was 0 and the “Subjects with AE leading to discontinuation: Psychiatric disorders” value was 0. For the same compound, the “Subjects with AE leading to discontinuation: Skin and subcutaneous tissue disorders” value was 0, the “Subjects with AE leading to discontinuation: Suicide attempt” value was 0 and the “Subjects with AE leading to discontinuation: Vertigo” value was 0. The “Subjects with AE leading to discontinuation: Vomiting” value was 0, the “Subjects with COVID-19 associated AE: SARS-CoV-2 test positive” value was 0 and the “Subjects with treatment-emergent AE: Influenza” value was 0. For the same compound, the “Subjects with treatment-emergent serious AE: COVID-19” value was 0, the “Subjects with treatment-emergent serious AE: Cardiac disorders” value was 0 and the “Subjects with treatment-emergent serious AE: Cerebrovascular accident” value was 0. For the same compound, the “Subjects with treatment-emergent serious AE: Coronary artery disease” value was 0, the “Subjects with treatment-emergent serious AE: Diverticulitis” value was 0 and the “Subjects with treatment-emergent serious AE: Foot deformity” value was 0. For the same compound, the “Subjects with treatment-emergent serious AE: General disorders and administration site conditions” value was 0, the “Subjects with treatment-emergent serious AE: Infected cyst” value was 0 and the “Subjects with treatment-emergent serious AE: Infections and infestations” value was 0. For the same compound, the “Subjects with treatment-emergent serious AE: Injury, poisoning and procedural complications” value was 0, the “Subjects with treatment-emergent serious AE: Intervertebral disc protrusion” value was 0 and the “Subjects with treatment-emergent serious AE: Ligament injury” value was 0. For the same compound, the “Subjects with treatment-emergent serious AE: Musculoskeletal and connective tissue disorders” value was 0.

From US20260232767A1, “INTERLEUKIN-23 RECEPTOR ANTAGONIST PEPTIDES FOR USE IN THE TREATMENT OF PSORIASIS” (Janssen Pharmaceutica NV, priority 2023, published 2026)
